The source of these data is patent publication US20250313563A1, “GLYCOGEN SYNTHASE KINASE 3 INHIBITORS AND USES THEREOF” (The Broad Institute, Inc., priority 2022, published 2025).

Molecules are shown by their SMILES. Like-named read-outs stand apart in the source and are kept apart here. Where only a bound is given, the exact number is not on record here.

Data set [1] has as its target GSK3α (Homo sapiens (Human), UniProt P49840). The data set is described as follows: AT8 (pS202/pThr205) tau phosphorylation FRET assay, GSK3α-transfected cells. It counts as cell-based. Conditions: GSK3α and GSK3β transfected cells.
Experimental: 293T cells stably expressing human 2N4R Tau were transfected with appropriate cDNA plasmids. 24 hours following transfection cells were treated with compound in a 10-point dose-response (from 1000× stocks of compound) and lysates harvested 2 hours later with cell extraction buffer (Life Technologies Cat #BN0001) or RIPA Buffer with Halt protease/phosphatase inhibitors added.
For AT8 assay: FRET antibodies (Custom designed Cisbio assay kit; S202/T205 Tb and total Tau D2 FRET antibodies) were added to lysate in a 384 well assay plate at 1:4 ratio (antibody/lysate). After antibody addition, the plate was left at room temperature for 60 minutes incubation time. Plate was read with appropriate wavelength settings using an Envision plate reader (ex320 and em620 and em665).
In the next data set the target is NanoLuc-GSK3α (Homo sapiens (Human), UniProt P49840). The data set is described as follows: NanoBRET residence time, GSK3α. The format is cell-based. Conditions: inhibitor at 10× IC50, BRET every 5 min for 3 hours. On the technique in general: Bioluminescence resonance energy transfer reports proximity on the nanometre scale.
NanoLuc-GSK3α, sequence (P49840 whole entry): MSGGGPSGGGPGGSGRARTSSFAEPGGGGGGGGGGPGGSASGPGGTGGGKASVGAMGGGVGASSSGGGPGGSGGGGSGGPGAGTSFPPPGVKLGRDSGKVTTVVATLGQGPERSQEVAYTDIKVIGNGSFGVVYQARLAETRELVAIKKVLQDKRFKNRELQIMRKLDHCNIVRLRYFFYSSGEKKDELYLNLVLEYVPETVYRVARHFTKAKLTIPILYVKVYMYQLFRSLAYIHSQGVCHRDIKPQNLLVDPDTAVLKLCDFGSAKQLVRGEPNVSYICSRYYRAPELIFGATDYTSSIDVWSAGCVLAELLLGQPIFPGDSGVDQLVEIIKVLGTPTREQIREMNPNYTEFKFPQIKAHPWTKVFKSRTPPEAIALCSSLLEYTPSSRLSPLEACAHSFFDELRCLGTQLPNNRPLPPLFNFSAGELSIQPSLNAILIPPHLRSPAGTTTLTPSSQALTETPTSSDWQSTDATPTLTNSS
A further data set deals with NanoLuc-GSK3β (Homo sapiens (Human), UniProt P49841). Nature of the data set: NanoBRET residence time, GSK3β. The format is cell-based. Conditions: inhibitor at 10× IC50, BRET every 5 min for 3 hours.
NanoLuc-GSK3β, sequence (P49841 whole entry): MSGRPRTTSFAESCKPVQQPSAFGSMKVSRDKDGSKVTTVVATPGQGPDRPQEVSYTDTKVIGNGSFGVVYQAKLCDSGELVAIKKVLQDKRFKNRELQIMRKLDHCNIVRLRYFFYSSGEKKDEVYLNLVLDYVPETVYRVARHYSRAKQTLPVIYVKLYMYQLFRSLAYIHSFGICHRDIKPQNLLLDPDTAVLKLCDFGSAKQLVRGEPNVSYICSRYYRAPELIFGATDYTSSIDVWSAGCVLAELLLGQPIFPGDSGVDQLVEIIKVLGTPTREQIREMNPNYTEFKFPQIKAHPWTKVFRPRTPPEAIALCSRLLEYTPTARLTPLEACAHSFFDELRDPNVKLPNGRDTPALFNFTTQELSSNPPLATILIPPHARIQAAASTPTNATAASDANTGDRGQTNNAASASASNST
The nature of data set [2]: Drug exposure in blood and brain, free drug concentration in the brain. It counts as in vivo, Sprague Dawley rats. Conditions: P10 rats. As for the experimental part:
Sprague Dawley rats were bred in-house and litters were injected with compound, I.P. at post-natal day 10. Rats were then euthanized at indicated times following drug administration. For tissue collection, animals were euthanized via decapitation, brains were quickly removed, and bisected sagitally. The right cortex, was isolated, placed into 2 mL microtubes along with a single 5 mm stainless steel bead and the left cortex were placed into 2 mL Lysing Matrix A tubes (MP Biomedicals, Santa Ana, CA), Both tubes were immediately snap frozen in liquid nitrogen.
Aqueous buffered homogenate was created from cortical tissue via bead beater, at a consistent homogenization factor, which was normalized by tissue weight. Total drug in brain was determined by measuring total exposure in brain in ng/ml (cortical tissue) via LC-MS/MS. This was then corrected to free concentration via an experimentally derived fu,br using rapid equilibrium dialysis with brain homogenate.
To determine drug exposure, blood and cortical tissue were analyzed at each time point following dosing.

The target in data set [3] is GSK3α (Rattus norvegicus (Rat), UniProt P18265). Nature of the data set: In vivo target engagement assay (chemoproteomics, kinobeads), GSK3α. Conditions: P10 rat cortex. On the procedure: (§1) Chemoproteomics competition was used to evaluate inhibitor selectivity and target engagement in vivo. Frozen cortexes were prepared for homogenization with 1.2 mL of Lysis Buffer (50 mM Tris-HCl, 0.8% NP-40 ((octylphenoxy poly(ethyleneoxy) ethanol)), 5% glycerol, 150 mM NaCl, 1.5 mM MgCl2, 25 mM NaF, 1 mM sodium vanadate, 1 mM DTT, pH 7.5 and supplemented with protease inhibitors). Tissues were homogenized in FastPrep-24 5G instrument at maximum oscillations for 20 seconds. The resulting brain homogenate was clarified by centrifugation for 1 h at 145 000 g, 4° C. The protein concentration of the supernatant was determined by BCA assay and each sample was diluted to final concentration of 5 mg/mL with lysis buffer. […] The dry peptide mixture was reconstituted in 15 μL of 0.1% trifluoro acetic acid and analyzed on ID nanoLC-MS/MS platform using a standardized 140 min method. Peptides were separated on an Easy-Spray column (75 μm×50 cm, PepMAP C18, 1.9 μm) at 250 nL/min, analyzed on a QExactive HF mass spectrometer at data dependent acquisition (DDA) mode with MS1 at 60,000 and MS2 at 15,000 resolution, respectively. […]
GSK3α (Rattus norvegicus (Rat), UniProt P18265), sequence (P18265 whole entry): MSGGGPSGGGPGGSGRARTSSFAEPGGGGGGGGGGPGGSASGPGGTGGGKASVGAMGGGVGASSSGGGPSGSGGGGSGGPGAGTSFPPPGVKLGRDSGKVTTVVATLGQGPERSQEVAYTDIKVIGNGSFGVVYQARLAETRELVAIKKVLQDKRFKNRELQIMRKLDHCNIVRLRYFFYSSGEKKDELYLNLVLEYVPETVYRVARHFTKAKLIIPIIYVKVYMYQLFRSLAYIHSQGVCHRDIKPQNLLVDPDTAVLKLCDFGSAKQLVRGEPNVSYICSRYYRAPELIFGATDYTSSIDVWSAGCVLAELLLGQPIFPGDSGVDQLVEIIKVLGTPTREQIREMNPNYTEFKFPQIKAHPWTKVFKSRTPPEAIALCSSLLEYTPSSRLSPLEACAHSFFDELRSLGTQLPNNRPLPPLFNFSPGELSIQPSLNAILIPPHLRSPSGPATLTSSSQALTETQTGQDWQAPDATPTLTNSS
To measure direct target engagement of the compound for both GSK3α and GSK3β competitive chemoproteomics methodology was used. […] Enriched proteins were analyzed by liquid chromatography coupled with tandem mass spectrometry. […]

Data set [4] deals with 251 unique detected kinases in rat brain. Nature of the data set: In vivo kinome selectivity (chemoproteomics, kinobeads). Particulars: 60 mg/kg. As for the experimental part: as §1
To investigate whether the effects of 837646 on tau phosphorylation were solely the result of GSK3 inhibition, additional kinases detected by mass spectrometry for compound engagement in the same brain lysates were profiled. […]

In data set [5] the target is GSK3α (GST-full length GSK3α) (Homo sapiens (Human), UniProt P49840). Nature of the data set: GSK3α TR-FRET kinase assay. It counts as biochemical. Conditions: geometric mean, GMean. The essentials: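 In this time-resolved FRET format, kinase reactions contained 200 nM biotinylated, S645-phosphorylated glycogen synthase 631-650 peptide and either isoform-specific ATP (2 μM GSK3b, 4 μM GSK3α) or 1 mM ATP. They were quenched with EDTA after 100 min at ambient temperature. Inhibition curves gave IC50 values.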
GSK3α (GST-full length GSK3α), sequence (P49840 whole entry, canonical isoform): as the sequence (P49840 whole entry) above
Background: In TR-FRET formats the signal depends on donor and acceptor labels being close together.

GSK3α (Homo sapiens (Human), UniProt P49840), sequence (P49840 whole entry): as above

Turning to `CCC1(c2cccc(C(F)(F)F)c2)C2=C(Nc3n[nH]cc31)C(F)C(C)(C)CC2=O` (single isomer, unassigned) [Compound 837646, 4-ethyl-8-fluoro-7,7-dimethyl-4-(3-(trifluoromethyl)phenyl)-2,4,6,7,8,9-hexahydro-5H-pyrazolo[3,4-b]quinolin-5-one], the “relative cellular potency and paralog selectivity at pS202/pThr205 (AT8) compared with pThr231 assay” value on GSK3α [1] is given as “similar”. Besides, on NanoLuc-GSK3α, the “residence time at GSK3α” value is recorded as “no difference in the residence time”. The “residence time at GSK3β” value at NanoLuc-GSK3β is given as “no difference in the residence time”. Moreover, in data set [2], the “steady Cmax extending post injection” value is 6 h. The “target engagement at GSK3α, 24 hr” value on GSK3α [3] (24 hr, both 60 mg/kg and 20 mg/kg) was ~50%. The “target engagement for GSK3α, 3 hours” value on GSK3α [3] (three hours after dosing (Cmax, 60 mg/kg)) was “over 90%”. The “number of off-target kinases with target engagement greater than 70%” value in data set [4] (Cmax, of 251 unique kinases, apart from GSK3) is reported as 6. In data set [4] (out of 251 unique detected kinases), the “number of kinases with target engagement greater than 70% (including GSK3α)” value is 7. The IC50 was ≤ 100 nM in data set [5] (1 nM GSK3α, 4 μM ATP, 30 minute preincubation, read-out: GSK3-A TR-FRET BIOCHEMICAL (TR-FRET), IC50) and ≤ 100 nM in data set [5] (GSK3-A (TR-FRET 1 mM ATP), IC50, 1 mM ATP).
